The values below are quoted from earlier work in US12616655B2, “Topical antibiotic containing pharmaceutical composition for bacterial infections and wound healing” (Vishagan Vanangamudi Sulur, priority 2019, dated 2026).

SMILES strings stand for the structures. In brackets after ≈: the same amount, converted by molar mass. Read-outs that look alike come from different tables or passages of the source.

The conditions of data set [1]: at 22° C.
For data set [2], the system named is Staphylococcus aureus.
The conditions of data set [3]: through intact human skin.

In the case of `C/C(=C\C(=O)OCCCCCCCCC(=O)O)C[C@@H]1OC[C@H](C[C@@H]2O[C@H]2[C@@H](C)[C@H](C)O)[C@@H](O)[C@H]1O` [Mupirocin], in data set [1], the pKa (usually the pH at which an ionisable group is half protonated) is recorded as 5. Besides, the “inhibition of protein and RNA synthesis” value in data set [2] is “strongly inhibit”. Also, in data set [3], the Systemic absorption entry is “minimal”. Besides, the solubility (in general, the dissolved amount per volume that the medium holds) was 500 µg/mL (≈ 999 µM) (in alcohol at 20° C.) and 1000 µg/mL (≈ 2000 µM) (in water at 20° C.).
